Experimental data: patent US20180200257A1, “METHODS FOR THE TREATMENT OF INFLAMMATORY DISORDERS” (Galapagos NV, priority 2015, published 2018)

Test system: subjects with moderately to severely active RA who have an inadequate response to methotrexate (MTX)
Test: Study 1 (add-on to MTX) - DAS28(CRP) scores
Assay type: in vivo, human
Set-up: key to DAS28(CRP) mean CFB (LOCF): change from baseline in DAS28(CRP) score (joints, CRP, 0-100 VAS)
Protocol: Double-blind, placebo-controlled add on study in subjects with moderately to severely active RA who have an inadequate response to methotrexate (MTX) (oral or parenteral).
595 subjects randomized to one of 6 dose regimens of Compound 1 (dosed as [Compound 1:HCl:3H2O]) (3 dose levels administered either once or twice daily) or placebo on top of each subject's stable dose of MTX.
Compound 1 (dosed as [Compound 1:HCl:3H2O]) is dosed for twelve weeks once daily (q.d.) (50 mg, 100 mg or 200 mg) or twice daily (b.i.d.) (25 mg, 50 mg or 100 mg); or placebo.
At Week 12, the subjects on placebo who have not achieved 20% improvement in swollen joint count (SJC66) and tender joint count (TJC68) are re-randomized automatically to receive Compound 1 (dosed as a [Compound 1:HCl:3H2O]) either at 100 mg q.d. or 50 mg b.i.d. doses in a blinded fashion; subjects on 50 mg q.d. who have not achieved 20% improvement in SJC66 and TJC68 will be assigned to 100 mg q.d. and subjects on 25 mg b.i.d. that have not achieved a 20% improvement in SJC66 and TJC68 will be assigned to 50 mg b.i.d. Subjects who switch treatment at week 12 are handled as if they discontinued at week 12 for the purpose of statistical analysis, whereas subjects in the other groups will maintain their randomized treatment until Week 24.
The (DAS28(CRP)) is a system developed and validated by the European League Against Rheumatism (EULAR) to measure the progress and improvement of rheumatoid arthritis and has been extensively validated (Wells et al., 2008). The DAS28(CRP) scoring includes a 28 tender and swollen joint count, CRP measurement from blood analysis, and a general health assessment on a visual analog scale (Fransen et al., 2003).
DAS28(CRP) values range from 2.0 to 10.0, and more particularly reflect the following status: • Remission: DAS28(CRP) ≤2.6 • Low Disease activity: 2.6 <DAS28(CRP) ≤3.2 • Moderate Disease Activity: 3.2 <DAS28(CRP) ≤5.1 • High Disease Activity: DAS28(CRP) >5.1
In practice, the DAS28(CRP) measurement involves the evaluation 28 different joints including in the measurement (proximal interphalangeal joints (10 joints), metacarpophalangeal joints (10), wrists (2), elbows (2), shoulders (2), and knees (2)). When looking at these joints, both the number of joints with tenderness upon touching and swelling are counted.
Secondly, C-reactive protein level is measured.
Finally, the patient makes a subjective assessment of disease activity during the preceding 7 days on a scale between 0 and 100, where 0 is “no activity” and 100 is “highest activity possible”.
The DAS28(CRP) score is then calculated as follows:
Firstly, the patient is asked to make a vertical mark on a 100 mm Visual Analog Scale (VAS) corresponding to their general health or global disease activity on a touch screen to measure the VAS value, which is used in the formula below.
Secondly, a swollen and tender joint examination is then performed on the patient. The swollen and tender joints are recorded. From this examination are obtained the total amount of swollen joints (SJC) and the total amount of tender joints (TJC), which are used in the formula below.
Thirdly, C-reactive protein (CRP) levels are measured.
Finally, the values obtained above (VAS, TJC28, SJC28, and CRP) are computed into the following Formula to obtain the DAS28(CRP) score.
DAS28(CRP)=0.56*√{square root over (TJC28)}+0.28√{square root over (SJC28)}+[…] ln(CRP+1)+0.014*VAS
The improvement (decreases) in the DAS28(CRP) scores for each patient group at weeks 1, 2, 4, 8 and 12 is shown in Table LXXXVII and Table LXXXVIII below, together with the Hommel-corrected p-value for the pairwise comparisons of each group with placebo.
The number of subjects (N) provided in each groups corresponds to the number of subjects starting the study in each group, and the DAS28 (CRP) data reported below corresponds to the responding subjects continuing for the entire 24 weeks on their initial treatment course.

[1] = 2 × 25 mg b.i.d., 12 weeks results
[2] = 2 × 25 mg b.i.d., 24 weeks results
[3] = 2 × 50 mg b.i.d., 12 weeks results
[4] = 2 × 50 mg b.i.d., 24 weeks results
[5] = 2 × 100 mg b.i.d., 12 weeks results
[6] = 2 × 100 mg b.i.d., 24 weeks results

## O=C(Nc1nc2cccc(-c3ccc(CN4CCS(=O)(=O)CC4)cc3)n2n1)C1CC1 [Compound 1, cyclopropanecarboxylic acid {5-[4-(1,1-dioxo-thiomorpholin-4-ylmethyl)-phenyl]-[1,2,4]triazolo[1,5-a]pyridin-2-yl}-amide]
2 × 25 mg b.i.d., week 2, 12 weeks results
  DAS28(CRP) mean CFB (LOCF): −1.06
2 × 25 mg b.i.d., week 2, 24 weeks results
  DAS28(CRP) mean CFB (LOCF): −1.06
2 × 25 mg b.i.d., week 4, 12 weeks results
  DAS28(CRP) mean CFB (LOCF): −1.45
2 × 25 mg b.i.d., week 4, 24 weeks results
  DAS28(CRP) mean CFB (LOCF): −1.45
2 × 25 mg b.i.d., week 8, 12 weeks results
  DAS28(CRP) mean CFB (LOCF): −1.82
2 × 25 mg b.i.d., week 8, 24 weeks results
  DAS28(CRP) mean CFB (LOCF): −1.82
2 × 25 mg b.i.d., week 12, 12 weeks results
  DAS28(CRP) mean CFB (LOCF): −1.88
2 × 25 mg b.i.d., week 12, 24 weeks results
  DAS28(CRP) mean CFB (LOCF): −1.88
2 × 25 mg b.i.d., week 16, 24 weeks results
  DAS28(CRP) mean CFB (LOCF): −2.02
2 × 25 mg b.i.d., week 20, 24 weeks results
  DAS28(CRP) mean CFB (LOCF): −2.07
2 × 25 mg b.i.d., week 24, 24 weeks results
  DAS28(CRP) mean CFB (LOCF): −2.19
[1]
  % patients reaching low disease activity and/or remission at week 12 (LOCF): 28%
  % patients reaching low disease activity at week 12 (LOCF): 13%
  % patients reaching remission at week 12 (LOCF): 15%
[2]
  % patients reaching low disease activity and/or remission at week 24 (LOCF): 40%
  % patients reaching low disease activity at week 24 (LOCF): 16%
  % patients reaching remission at week 24 (LOCF): 23%
2 × 25 mg b.i.d., Week 1, 12 weeks results
  DAS28(CRP) mean CFB (LOCF): −0.68
2 × 25 mg b.i.d., Week 1, 24 weeks results
  DAS28(CRP) mean CFB (LOCF): −0.68
2 × 50 mg b.i.d., week 2, 12 weeks results
  DAS28(CRP) mean CFB (LOCF): −1.22
2 × 50 mg b.i.d., week 2, 24 weeks results
  DAS28(CRP) mean CFB (LOCF): −1.22
2 × 50 mg b.i.d., week 4, 12 weeks results
  DAS28(CRP) mean CFB (LOCF): −1.65
2 × 50 mg b.i.d., week 4, 24 weeks results
  DAS28(CRP) mean CFB (LOCF): −1.63
2 × 50 mg b.i.d., week 8, 12 weeks results
  DAS28(CRP) mean CFB (LOCF): −1.93
2 × 50 mg b.i.d., week 8, 24 weeks results
  DAS28(CRP) mean CFB (LOCF): −1.93
2 × 50 mg b.i.d., week 12, 12 weeks results
  DAS28(CRP) mean CFB (LOCF): −2.10
2 × 50 mg b.i.d., week 12, 24 weeks results
  DAS28(CRP) mean CFB (LOCF): −2.10
2 × 50 mg b.i.d., week 16, 24 weeks results
  DAS28(CRP) mean CFB (LOCF): −2.37
2 × 50 mg b.i.d., week 20, 24 weeks results
  DAS28(CRP) mean CFB (LOCF): −2.40
2 × 50 mg b.i.d., week 24, 24 weeks results
  DAS28(CRP) mean CFB (LOCF): −2.40
[3]
  % patients reaching low disease activity and/or remission at week 12 (LOCF): 29%
  % patients reaching low disease activity at week 12 (LOCF): 11%
  % patients reaching remission at week 12 (LOCF): 18%
[4]
  % patients reaching low disease activity and/or remission at week 24 (LOCF): 38%
  % patients reaching low disease activity at week 24 (LOCF): 14%
  % patients reaching remission at week 24 (LOCF): 24%
2 × 50 mg b.i.d., Week 1, 12 weeks results
  DAS28(CRP) mean CFB (LOCF): −0.84
2 × 50 mg b.i.d., Week 1, 24 weeks results
  DAS28(CRP) mean CFB (LOCF): −0.84
2 × 100 mg b.i.d., week 2, 12 weeks results
  DAS28(CRP) mean CFB (LOCF): −1.84
2 × 100 mg b.i.d., week 2, 24 weeks results
  DAS28(CRP) mean CFB (LOCF): −1.84
2 × 100 mg b.i.d., week 4, 12 weeks results
  DAS28(CRP) mean CFB (LOCF): −2.28
2 × 100 mg b.i.d., week 4, 24 weeks results
  DAS28(CRP) mean CFB (LOCF): −2.24
2 × 100 mg b.i.d., week 8, 12 weeks results
  DAS28(CRP) mean CFB (LOCF): −2.72
2 × 100 mg b.i.d., week 8, 24 weeks results
  DAS28(CRP) mean CFB (LOCF): −2.72
2 × 100 mg b.i.d., week 12, 12 weeks results
  DAS28(CRP) mean CFB (LOCF): −2.84
2 × 100 mg b.i.d., week 12, 24 weeks results
  DAS28(CRP) mean CFB (LOCF): −2.84
2 × 100 mg b.i.d., week 16, 24 weeks results
  DAS28(CRP) mean CFB (LOCF): −3.06
2 × 100 mg b.i.d., week 20, 24 weeks results
  DAS28(CRP) mean CFB (LOCF): −3.02
2 × 100 mg b.i.d., week 24, 24 weeks results
  DAS28(CRP) mean CFB (LOCF): −3.23
[5]
  % patients reaching low disease activity and/or remission at week 12 (LOCF): 50%
  % patients reaching low disease activity at week 12 (LOCF): 14%
  % patients reaching remission at week 12 (LOCF): 36%
[6]
  % patients reaching low disease activity and/or remission at week 24 (LOCF): 64%
  % patients reaching low disease activity at week 24 (LOCF): 24%
  % patients reaching remission at week 24 (LOCF): 40%
2 × 100 mg b.i.d., Week 1, 12 weeks results
  DAS28(CRP) mean CFB (LOCF): −1.33
2 × 100 mg b.i.d., Week 1, 24 weeks results
  DAS28(CRP) mean CFB (LOCF): −1.33
